Experiments:
[1] = test system: BLM pulmonary fibrosis model mice; assay: Survival rate in BLM pulmonary fibrosis model mice; assay type: in vivo, C57BL6 mice; conditions: 2.5 mg/kg bleomycin intratracheally; 20 mg/kg nutlin 3b intraperitoneally 4 times a week for 2 weeks from day 8; deaths within 21 days; versus solvent only
Protocol: 2.5 mg/kg of bleomycin was intratracheally administered to 10- to 12-week old C57BL6 mice. Starting 8 days after bleomycin administration, 20 mg/kg of nutlin 3b or the solvent alone was intraperitoneally administered 4 times a week for 2 weeks. The mice were checked for survival every day, and the number of mice that died within 21 days after bleomycin administration was counted. In this test, 6 mice in the nutlin 3b non-administration group (solvent only) and 7 mice in the nutlin 3b administration group were used. […] In the figure, 3B indicates nutlin 3b. The same applies to the following figures.

[2] = test system: fibrosis-related genes (Col1a2, Col5a2, Fibronectin, and Toropelastin); assay: Expression of fibrosis-related mRNA in lung tissue of BLM pulmonary fibrosis model mice (real-time PCR); assay type: in vivo, ICR mice; conditions: lung tissue 21 days after 2.5 mg/kg bleomycin; 14, 20, and 24 mg/kg intraperitoneally 4 times a week for 2 weeks; versus solvent
Protocol: 2.5 mg/kg of bleomycin was intratracheally administered to 10- to 12-week old ICR mice. Starting 8 days after bleomycin administration, 14, 20, and 24 mg/kg of nutlin 3b or the solvent alone were intraperitoneally administered 4 times a week for 2 weeks. 21 days after bleomycin administration, mice in the nutlin 3b administration group or solvent administration group were sacrificed to sample their lung tissue. In the test, 3 mice in the nutlin 3b non-administration group (solvent only) and 3 mice in the nutlin 3b administration group were used. The same applies to the following tests. The collected lung tissue was immersed in a sufficient amount of RNAlater and stored at 4°C overnight. The next day, the lung tissue was removed from the RNAlater, and the total RNA was collected using TRIzole. Then, mRNA was reverse-transcribed using a ReverTra Ace qPCR RT kit to prepare cDNA. Real-time PCR was performed on the prepared cDNA using primers specific to fibrosis-related genes (Col1a2, Col5a2, Fibronectin, and Toropelastin).

[3] = test system: BLM pulmonary fibrosis model mice; assay: Pathological comparison: Masson's trichrome staining of lung tissue, quantification of fibrosis regions; assay type: in vivo, ICR mice; conditions: blue area quantified, 14, 20, and 24 mg/kg intraperitoneally 4 times a week for 2 weeks, day 21 after bleomycin
Protocol: 2.5 mg/kg of bleomycin was intratracheally administered to 10- to 12-week old ICR mice. Starting 8 days after bleomycin administration, 14, 20, and 24 mg/kg of nutlin 3b or the solvent alone were intraperitoneally administered 4 times a week for 2 weeks. 21 days after bleomycin administration, mice in the nutlin 3b administration group or solvent administration group were sacrificed to sample their lung tissue. The lung tissue was fixed by treatment with 4% paraformaldehyde for 48 hours. The fixed lung tissue was embedded in paraffin, and then sliced into 5 µm thin slices, and set on microscope slides. Masson's trichrome staining was performed on the thin slices of the lung tissue to evaluate fibrosis. Specifically, in Masson's trichrome staining, nuclei are stained black-brown with iron hematoxylin staining, cytoplasm is stained red with […], and collagen fibers are stained blue with aniline blue. Accordingly, to evaluate fibrosis, the stained image was separated into the three primary colors using ImageJ (image analysis software), and the area which stained blue was quantified as the fibrosis regions. The obtained signals of each group were expressed as relative values to the control group (PBS + PEG). The results of Masson's trichrome staining are shown in Fig. 17-1, and the quantification results of the fibrosis regions are shown in Fig. 17-2.

[4] = test system: FoxM1 and its downstream target genes (Plk1, Ccnb2, Aspm, and Cep55); assay: Expression of FoxM1 and its downstream target genes in lung tissue of BLM pulmonary fibrosis model mice (real-time PCR); assay type: in vivo, ICR mice; conditions: lung tissue 21 days after 2.5 mg/kg bleomycin; 20 mg/kg intraperitoneally 4 times a week for 2 weeks; versus solvent
Protocol: The influence of the nutlin 3b administration to FoxM1 target factors in bleomycin-induced pulmonary fibrosis was examined. Specifically, 2.5 mg/kg of bleomycin was intratracheally administered to 10- to 12-week old ICR mice. Starting 8 days after bleomycin administration, 20 mg/kg of nutlin 3b or the solvent alone was intraperitoneally administered 4 times a week for 2 weeks. 21 days after bleomycin administration, mice in the nutlin 3b administration group and the solvent administration group were sacrificed to sample their lung tissue. In the test, 3 mice in the nutlin 3b non-administration group (solvent only) and 3 mice in the nutlin 3b administration group were used. The collected lung tissue was immersed in a sufficient amount of RNAlater and stored at 4°C overnight. The next day, the lung tissue was removed from the RNAlater, and the total RNA was collected using TRIzole. Then, mRNA was reverse-transcribed using a ReverTra Ace qPCR RT kit to prepare cDNA. Real-time PCR was performed on the prepared cDNA using primers specific to FoxM1 and its downstream target genes (Plk1, Ccnb2, Aspm, and Cep55).

aged mice [5] = assay: Effect on the lungs of aged mice (HE staining and p21 antibody staining); assay type: in vivo, C57BL/6J; conditions: 20-month-old aged mice, once a week for 3 months; versus Vehicle
Protocol: (§1) Nutlin 3b was administered to C57BL/6J, 20-month-old aged mice once a week for 3 months. After 3 months, the mice were sacrificed, and HE staining and mRNA expression analysis of the lung tissue were performed. As a comparison subject, the lung tissue of young mice (C57BL/6J, 10-week old) and aged mice with no administration of nutlin 3b (Vehicle) were used.

aged mice [6] = assay: Effect on the kidneys of aged mice (HE staining, hyalinization, marker expression); assay type: in vivo, C57BL/6J; conditions: 20-month-old aged mice, once a week for 3 months, versus Vehicle
Protocol: as §1, with “renal” for “lung”
Also, the increase in senescence markers and SASP markers induced in aged renal tissue was suppressed by nutlin 3b administration (Fig. 20-3).

PGAM-Chk1 binding = PGAM-Chk1 binding inhibition HTP screening using a Cell-base NanoBiT system (primary screening); assay type: cell-based
Excerpt: Examples of a preferred method for measuring the binding level between PGAM and Chk1 include, in addition to the above, a method that uses PGAM and Chk1 labeled with tags that can bind to each other, and specific examples thereof include the following method that uses a Nanobit system. In Nanobit, a large subunit and a small subunit of a photoprotein prepared based on a luciferase are attached as tags to PGAM and Chk1, respectively. These tags have structures that can bind to each other. […] By measuring the intensity of the luminescence signal at this time, the binding level can be measured with high sensitivity and high quantitativity.
PGAM-Chk1 binding inhibition HTP (high-throughput) screening using a Cell-base NanoBiT system was carried out. Specifically, the screening was carried out by the following method. In NanoBiT, a large subunit and a small subunit of a photoprotein prepared based on a luciferase are attached as tags to PGAM and Chk1, respectively. These tags have structures that can bind to each other. […] By measuring the intensity of the luminescence signal at this time, the binding level can be measured with high sensitivity and high quantitativity. […] Therefore, a substance that inhibits the binding of PGAM and Chk1 was searched from the drug library, with the decrease in the luminescence signal as an indicator. […]

COc1ccc(C2=N[C@H](c3ccc(Cl)cc3)[C@H](c3ccc(Cl)cc3)N2C(=O)N2CCNC(=O)C2)c(OC(C)C)c1 [nutlin 3b, Nutlin-3b]
survival rate [1]: improved the survival rate | expression of the fibrosis-related genes [2]: decreased | fibrosis areas induced by bleomycin in the lungs [3]: smaller than those of the control group | expression of FoxM1 target genes [4]: suppression of the expression of FoxM1 target genes was observed | p21-positive cells in aged lung tissue (aged mice [5]): significantly suppressed | increase in senescence markers and SASP markers induced in aged renal tissue (aged mice [6]): suppressed | glomerular hyalinization (four-level score) (aged mice [6]; HE staining of renal tissue): significant improvement in hyalinization | interstitial hyalinization positive rate (aged mice [6]; HE staining of renal tissue): significant improvement in hyalinization

nutlin
luminescence signal (binding level between PGAM and Chk1) (PGAM-Chk1 binding): luminescence signal decreases

— patent EP4640238A1, “THERAPEUTIC AGENT FOR PULMONARY DISEASE, HEPATIC DISEASE OR RENAL DISEASE, WHICH CONTAINS PGAM-CHK1 BINDING INHIBITOR” (Kyoto University, priority 2022, dated 2024)
